The record followed here is ChEMBL document CHEMBL3046537, “Tautomeric origin of dual effects of N1-nicotinoyl-3-(4-hydroxy-3-methyl phenyl)-5-[(sub)phenyl]-2-pyrazolines on bacterial and viral strains: POM analyses as new efficient bioinformatics platform to predict and optimize bioactivity of drugs” (Med Chem Res, 2013).

A value given as a limit tells only on which side of the number the result lay.

For one assay, the system named is Aspergillus fumigatus. Kind of assay: Antifungal activity against Aspergillus fumigatus. It counts as functional.
The subject of assay [1] is Candida albicans. The experiment in a line: Antifungal activity against Candida albicans. It is filed as functional.
In the next assay the test system is Pichia kudriavzevii. The experiment in a line: Antifungal activity against Pichia kudriavzevii G03. It is filed as functional.
For a further assay, the system named is Nakaseomyces glabratus. The experiment in a line: Antifungal activity against Candida glabrata H05. It counts as functional.
The subject of assay [2] is Human immunodeficiency virus. Kind of assay: Antiviral activity against Human immunodeficiency virus assessed as protection against virus-induced cytopathogenicity. It counts as functional. The arrangement: concentration or dose not given beside the values. (Cytopathic effects are the visible damage that an infection or toxin causes in cultured cells.)
The subject of another assay is Staphylococcus aureus. The experiment in a line: Antibacterial activity against Staphylococcus aureus 209P. It is filed as functional.
For assay [3], the system named is Candida albicans. Kind of assay: Antifungal activity against Candida albicans ATCC 10231. It is filed as functional.
In assay [4] the test system is Human immunodeficiency virus. Kind of assay: Antiviral activity against Human immunodeficiency virus. It counts as functional, organism-based. Particulars: Human immunodeficiency virus 1.
In another assay the test system is Escherichia coli. Kind of assay: Antibacterial activity against Escherichia coli 2231. It is filed as functional.

For `Cc1cc(C2=CC(c3ccccc3Cl)N(C(=O)c3ccncc3)N2)ccc1O` (stereo not given), the “inhibition zone (IZ)” value with Aspergillus fumigatus was more than 15 mm; in the assay with Candida albicans [1], less than 5 mm; in the assay on Pichia kudriavzevii, less than 5 mm; with Nakaseomyces glabratus it was less than 5 mm; in the assay with Staphylococcus aureus, more than 15 mm; in the assay on Candida albicans [3], less than 5 mm. Moreover, the “inhibition zone (IZ)” value with Escherichia coli is more than 15 mm. Further, the Activity in assay [2] is reported as 24%. In addition, the IC50 – broadly, the concentration that inhibits the measured activity by half – in [4] was more than 53 µM.
Regarding `COc1cc(C2C=C(c3ccc(O)c(C)c3)NN2C(=O)c2ccncc2)cc(OC)c1OC` (stereo not given), the “inhibition zone (IZ)” value is recorded as 5 mm with Aspergillus fumigatus; 5 mm in the assay on Candida albicans [1]; less than 5 mm with Pichia kudriavzevii; less than 5 mm in the assay with Nakaseomyces glabratus; 5 mm in the assay on Staphylococcus aureus; less than 5 mm in the assay with Candida albicans [3]. Further, in the assay on Escherichia coli, the “inhibition zone (IZ)” value amounted to 5 mm. Besides, the Activity in assay [2] came to 26%. The IC50 in [4] was more than 66 µM.
With `COc1ccc(C2C=C(c3ccc(O)c(C)c3)NN2C(=O)c2ccncc2)cc1OC` (stereo not given), the “inhibition zone (IZ)” value in the assay with Aspergillus fumigatus is 10 mm; in the assay with Candida albicans [1], 5 mm; with Pichia kudriavzevii, less than 5 mm; in the assay on Nakaseomyces glabratus, less than 5 mm; in the assay on Staphylococcus aureus, 10 mm; with Candida albicans [3], less than 5 mm. Moreover, the “inhibition zone (IZ)” value with Escherichia coli was 10 mm. Moreover, the Activity in [2] is given as 24%. Moreover, the 50% inhibitory concentration (IC50) in assay [4] is more than 14 µM.
In the case of `OC(Cn1cncn1)(Cn1cncn1)c1ccc(F)cc1F` [FLUCONAZOLE], the “inhibition zone (IZ)” value with Aspergillus fumigatus is reported as more than 15 mm; in the assay with Candida albicans [1], more than 15 mm; with Pichia kudriavzevii, more than 15 mm; in the assay with Nakaseomyces glabratus, more than 15 mm; in the assay with Staphylococcus aureus, less than 5 mm; in the assay on Candida albicans [3], more than 15 mm. Moreover, in the assay on Escherichia coli, the “inhibition zone (IZ)” value is reported as less than 5 mm.
For `Cc1cc(C2=CC(c3ccc(N(C)C)cc3)N(C(=O)c3ccncc3)N2)ccc1O` (stereo not given), the “inhibition zone (IZ)” value with Aspergillus fumigatus is reported as more than 15 mm; in the assay with Candida albicans [1] it was more than 15 mm; in the assay with Pichia kudriavzevii it was 5 mm; in the assay on Nakaseomyces glabratus it was 10 mm; in the assay on Staphylococcus aureus, more than 15 mm; in the assay with Candida albicans [3] it was 10 mm. The “inhibition zone (IZ)” value with Escherichia coli was more than 15 mm. Moreover, the Activity in assay [2] is 102%. Besides, in [4], the IC50 was 6 µM.
For the molecule `Cc1cc(C2=CC(c3ccc(Cl)cc3)N(C(=O)c3ccncc3)N2)ccc1O` (stereo not given), the “inhibition zone (IZ)” value is listed as more than 15 mm in the assay with Aspergillus fumigatus; more than 15 mm with Candida albicans [1]; less than 5 mm in the assay on Pichia kudriavzevii; less than 5 mm in the assay with Nakaseomyces glabratus; more than 15 mm in the assay with Staphylococcus aureus; less than 5 mm with Candida albicans [3]. In the assay with Escherichia coli, the “inhibition zone (IZ)” value is given as more than 15 mm. For the same molecule, the Activity in assay [2] stood at 42%. The same molecule displayed a half-maximal inhibitory concentration (IC50) in [4] of more than 36 µM.
Consider `Cc1cc(C2=CC(c3ccc(F)cc3)N(C(=O)c3ccncc3)N2)ccc1O` (stereo not given), for which the “inhibition zone (IZ)” value in the assay on Aspergillus fumigatus was more than 15 mm; with Candida albicans [1], more than 15 mm; in the assay on Pichia kudriavzevii it was less than 5 mm; with Nakaseomyces glabratus, less than 5 mm; in the assay on Staphylococcus aureus it was more than 15 mm; with Candida albicans [3], less than 5 mm. Further, in the assay with Escherichia coli, the “inhibition zone (IZ)” value is more than 15 mm. In addition, the Activity in [2] was found to be 8%. This molecule came in with an IC50 in [4] of more than 68 µM.
For `Cc1cc(C2=CC(c3cccc([N+](=O)[O-])c3)N(C(=O)c3ccncc3)N2)ccc1O` (stereo not given), the “inhibition zone (IZ)” value in the assay on Aspergillus fumigatus is recorded as more than 15 mm; in the assay with Candida albicans [1], less than 5 mm; with Pichia kudriavzevii, less than 5 mm; in the assay on Nakaseomyces glabratus it was less than 5 mm; in the assay with Staphylococcus aureus it was more than 15 mm; in the assay with Candida albicans [3], less than 5 mm. Also, in the assay on Escherichia coli, the “inhibition zone (IZ)” value is recorded as more than 15 mm. For the same molecule, the Activity in assay [2] was 40%. The molecule also registered an IC50 in [4] of more than 11 µM.
For `COc1ccc(C2C=C(c3ccc(O)c(C)c3)NN2C(=O)c2ccncc2)cc1` (stereo not given), the “inhibition zone (IZ)” value in the assay on Aspergillus fumigatus was 5 mm; in the assay with Candida albicans [1] it was less than 5 mm; in the assay with Pichia kudriavzevii it was less than 5 mm; in the assay on Nakaseomyces glabratus, less than 5 mm; in the assay with Staphylococcus aureus, 5 mm; in the assay with Candida albicans [3] it was less than 5 mm. In addition, the “inhibition zone (IZ)” value with Escherichia coli is 10 mm. For the same molecule, in assay [2], the Activity worked out at 24%. The same molecule displayed a concentration for half-maximal inhibition (IC50) in [4] of more than 125 µM.
As for `CC1COc2c(N3CCN(C)CC3)c(F)cc3c(=O)c(C(=O)O)cn1c23` (stereo not given) [OFLOXACIN], the “inhibition zone (IZ)” value in the assay with Aspergillus fumigatus is less than 5 mm; in the assay on Candida albicans [1], less than 5 mm; in the assay with Pichia kudriavzevii it was less than 5 mm; in the assay with Nakaseomyces glabratus, less than 5 mm; with Staphylococcus aureus, more than 15 mm; in the assay with Candida albicans [3], less than 5 mm. Also, the “inhibition zone (IZ)” value in the assay with Escherichia coli is more than 15 mm.
As to `Cc1cc(C2=CC(c3c(Cl)cccc3Cl)N(C(=O)c3ccncc3)N2)ccc1O` (stereo not given), the “inhibition zone (IZ)” value in the assay on Aspergillus fumigatus is listed as more than 15 mm; in the assay with Candida albicans [1] it was more than 15 mm; in the assay with Pichia kudriavzevii, 5 mm; in the assay on Nakaseomyces glabratus, 10 mm; in the assay with Staphylococcus aureus, more than 15 mm; in the assay on Candida albicans [3], more than 15 mm. In the assay on Escherichia coli, the “inhibition zone (IZ)” value is more than 15 mm. Besides, in assay [2], the Activity is given as 24%. The IC50 in [4] was more than 14 µM.
In the case of `Cc1cc(C2=CC(c3ccccc3)N(C(=O)c3ccncc3)N2)ccc1O` (stereo not given), the “inhibition zone (IZ)” value with Aspergillus fumigatus is given as 5 mm; in the assay on Candida albicans [1], less than 5 mm; with Pichia kudriavzevii, less than 5 mm; in the assay on Nakaseomyces glabratus, less than 5 mm; in the assay on Staphylococcus aureus, 5 mm; in the assay with Candida albicans [3], less than 5 mm. Also, the “inhibition zone (IZ)” value in the assay with Escherichia coli was 5 mm. Besides, the Activity in assay [2] worked out at 13%. This molecule yielded an IC50 in assay [4] of more than 11 µM.
In the case of `Cc1ccnc2c1NC(=O)c1cccnc1N2C1CC1` [NEVIRAPINE], the Activity in assay [2] is 98%. In [4], this molecule returned an IC50 of 0.1 µM.
As for `Cc1cc(C2=CC(c3ccco3)N(C(=O)c3ccncc3)N2)ccc1O` (stereo not given), the “inhibition zone (IZ)” value is on record as more than 15 mm in the assay on Aspergillus fumigatus; 5 mm in the assay on Candida albicans [1]; less than 5 mm in the assay with Pichia kudriavzevii; less than 5 mm in the assay on Nakaseomyces glabratus; more than 15 mm in the assay with Staphylococcus aureus; less than 5 mm with Candida albicans [3]. For the same molecule, the “inhibition zone (IZ)” value in the assay with Escherichia coli is listed as more than 15 mm. Further, in [2], the Activity was determined as 86%. Also, the concentration for half-maximal inhibition (IC50) in assay [4] is 7 µM.
